The values that follow come from patent publication US5723484A, “Benzopyran compounds as 5-HT2C receptor antagonists” (Adir et Compagnie, priority 1994, dated 1998).

Experiment [1] concerns the target T1, 5-HT2C receptors (Sus scrofa, UniProt K7GSR7).
T1 construct: pig cerebral plexus; from tissue; host or cells: pig cerebral plexus (own knowledge: choroid plexus)
T1 sequence (K7GSR7 1-457): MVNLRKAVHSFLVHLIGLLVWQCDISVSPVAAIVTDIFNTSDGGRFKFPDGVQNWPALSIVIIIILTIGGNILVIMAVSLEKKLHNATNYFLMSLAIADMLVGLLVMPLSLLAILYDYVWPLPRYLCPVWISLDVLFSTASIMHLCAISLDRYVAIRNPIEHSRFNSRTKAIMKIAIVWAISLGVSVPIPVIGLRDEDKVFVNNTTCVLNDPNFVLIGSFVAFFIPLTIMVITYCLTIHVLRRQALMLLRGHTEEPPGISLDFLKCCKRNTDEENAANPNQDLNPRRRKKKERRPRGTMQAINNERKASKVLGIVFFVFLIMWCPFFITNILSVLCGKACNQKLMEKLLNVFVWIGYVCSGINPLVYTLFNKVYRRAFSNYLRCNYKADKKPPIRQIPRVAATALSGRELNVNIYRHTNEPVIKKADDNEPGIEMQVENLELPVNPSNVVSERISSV
The experiment is described as follows: biochemical. It counts as binding, pig. The note with it: for Ki: 5-HT2C Ki (nM), pig cerebral plexus, [3H]-mesulergine 1.0 nM, average of two to four determinations. On the procedure: (§1) Measurement of the in vitro affinity for the 5-HT2C and 5-HT2A receptors
(§2) The procedures described for the studies of the binding to the 5-HT2A and 5-HT2C receptors are exactly those described by H. Canton et al. (Eur. J. Pharmacol., 191, 93, 1990) and M. J. Millan et al. (J. Pharmacol. Exp. Ther., 262, 451-463, 1992). For 5-HT2A : rat frontal cortex/[^3 H]-ketanserin (1.0 nM). For 5-HT2C : pig […] plexus/[^3 H]-mesulergine (1.0 nM). The 50% inhibitory doses (ID50) are determined by regression analysis and the pKi values are calculated as follows: [formula] [L]=concentration of the Kd-Kd=dissociation constant Results

Experiment [2] concerns 5-HT2C receptors. The experiment is described as follows: biochemical. It counts as binding, pig. The note with it: for 5-HT2A /5-HT2C affinity ratio: 5-HT2A Ki (rat frontal cortex) over 5-HT2C Ki (pig cerebral plexus); for selectivity relative to the reference compound SB 200,646: 5-HT2C vs 5-HT2A, relative to SB 200,646. On the procedure:
as §1, §2

The target of another experiment is T2, 5-HT2A receptors (Rattus norvegicus, UniProt P14842).
T2 construct: rat frontal cortex; from tissue; host or cells: rat frontal cortex
The experiment in a line: In vitro affinity for the 5-HT2A receptors, rat frontal cortex/[3H]-ketanserin (1.0 nM). It counts as binding. The note with it: rat frontal cortex, [3H]-ketanserin 1.0 nM; average of two to four determinations. On the procedure:
as §1, §2

Structures can show the parent of a compound that is named as a salt. Bounds are passed on as bounds.

T2 sequence (P14842 whole entry): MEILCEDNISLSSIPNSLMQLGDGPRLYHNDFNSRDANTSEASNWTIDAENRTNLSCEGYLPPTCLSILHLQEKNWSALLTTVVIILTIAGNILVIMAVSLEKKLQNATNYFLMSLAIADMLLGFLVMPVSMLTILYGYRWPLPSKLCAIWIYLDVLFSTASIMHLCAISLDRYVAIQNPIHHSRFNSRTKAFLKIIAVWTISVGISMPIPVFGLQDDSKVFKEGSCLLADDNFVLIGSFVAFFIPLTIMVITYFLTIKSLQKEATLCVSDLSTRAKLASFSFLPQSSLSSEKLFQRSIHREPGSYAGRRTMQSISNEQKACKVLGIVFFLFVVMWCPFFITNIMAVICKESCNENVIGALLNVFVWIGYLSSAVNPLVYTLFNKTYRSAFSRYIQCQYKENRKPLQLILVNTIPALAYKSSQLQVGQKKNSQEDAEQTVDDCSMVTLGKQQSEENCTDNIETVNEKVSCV

A word on the Ki: it is the dissociation constant of the complex between target and ligand, obtained from inhibition or displacement. For the compound `Cl.Oc1cccc2c1[C@H]1CN(Cc3ccccc3)C[C@@H]1CO2` (relative stereo) [Example 2, trans-2-Benzyl-9-hydroxy-1,3,3a,4,9b-pentahydro-(1)-benzopyrano[3,4-c]pyrrole hydrochloride], the values for the Ki on 5-HT2C receptors [1] and at 5-HT2A receptors were 195 nM and 0.49 µM, respectively. For the same compound, the “5-HT2A /5-HT2C affinity ratio” value with 5-HT2C receptors [2] is reported as 2.5.

Consider `COc1cccc2c1[C@H]1CN(Cc3ccccc3)C[C@@H]1CO2.Cl` (relative stereo) [Example 3, trans-2-Benzyl-9-methoxy-1,3,3a,4,9b-pentahydro-(1)-benzopyrano[3,4-c]pyrrole hydrochloride], for which the results for the Ki on 5-HT2C receptors [1] and at 5-HT2A receptors were 48 nM and 0.269 µM, respectively. The “5-HT2A /5-HT2C affinity ratio” value in the experiment with 5-HT2C receptors [2] came to 5.6.

For the compound `COc1cccc2c1[C@H]1CNC[C@@H]1CO2.Cl` (relative stereo) [Example 4, trans-9-Methoxy-1,3,3a,4,9b-pentahydro-(1)-benzopyrano[3,4-c]pyrrole hydrochloride], the Ki at 5-HT2C receptors [1] is 431 nM; on 5-HT2A receptors it was 3.47 µM. For the same compound, the “5-HT2A /5-HT2C affinity ratio” value with 5-HT2C receptors [2] is reported as 8.0.

For `CCCN1C[C@@H]2COc3cccc(OC)c3[C@H]2C1` (relative stereo) [Example 6, trans-2-Propyl-9-methoxy-1,3,3a,4,9b-pentahydro-(1)-benzopyrano[3,4-c]pyrrole], the inhibition constant Ki on 5-HT2C receptors [1] was found to be 104 nM; on 5-HT2A receptors, 1.74 µM. Also, in the experiment on 5-HT2C receptors [2], the “5-HT2A /5-HT2C affinity ratio” value was 16.7. In the experiment on 5-HT2C receptors [2], the “selectivity relative to the reference compound SB 200,646” value is recorded as “twice that of the reference compound SB 200,646”.

Compound `C=CCN1C[C@@H]2COc3cccc(OC)c3[C@H]2C1` (relative stereo) [Example 7, trans-2-Allyl-9-methoxy-1,3,3a,4,9b-pentahydro-(1)-benzopyrano[3,4-c]pyrrol] gave an inhibition constant Ki on 5-HT2C receptors [1] of 120 nM. For the same compound, in the experiment on 5-HT2C receptors [2], the “5-HT2A /5-HT2C affinity ratio” value is given as 15.2 and the “selectivity relative to the reference compound SB 200,646” value is “twice that of the reference compound SB 200,646”. This compound also gave an inhibition constant (Ki) at 5-HT2A receptors of 1.82 µM.

`COc1cccc2c1[C@@H]1CN(CCNC(=O)c3ccc(F)cc3)C[C@H]1CO2` (relative stereo) [Example 8, trans-2-[3-(4-Fluorobenzoylamino)ethyl]-9-methoxy-1,3,3a,4,9b-pentahydro-(1)-benzopyrano[3,4-c]pyrrole]: the inhibitory constant (Ki) on 5-HT2C receptors [1] is 107 nM; on 5-HT2A receptors, 0.095 µM. Moreover, in the experiment on 5-HT2C receptors [2], the “5-HT2A /5-HT2C affinity ratio” value amounted to 0.9.

`COc1ccc2c(c1)[C@H]1CN(Cc3ccccc3)C[C@@H]1CO2.Cl` (relative stereo) [Example 9, trans-2-Benzyl-8-methoxy-1,3,3a,4,9b-pentahydro-(1)-benzopyrano[3,4-c]pyrrole hydrochloride]: the inhibition constant (Ki) on 5-HT2C receptors [1] is 468 nM; at 5-HT2A receptors, 1.1 µM. Further, the “5-HT2A /5-HT2C affinity ratio” value with 5-HT2C receptors [2] was found to be 2.3.

Regarding `COc1ccc2c(c1)[C@H]1CNC[C@@H]1CO2.Cl` (relative stereo) [Example 10, trans-8-Methoxy-1,3,3a,4,9b-pentahydro-(1)-benzopyrano[3,4-c]pyrrole hydrochloride], the Ki is 2190 nM at 5-HT2C receptors [1] and more than 10 µM on 5-HT2A receptors. Further, the “5-HT2A /5-HT2C affinity ratio” value in the experiment on 5-HT2C receptors [2] is on record as more than 4.8.

With `CCCN1C[C@@H]2COc3ccc(OC)cc3[C@H]2C1.Cl` (relative stereo) [Example 11, trans-2-Propyl-8-methoxy-1,3,3a,4,9b-pentahydro-(1)-benzopyrano[3,4-c]pyrrole hydrochloride], the Ki on 5-HT2C receptors [1] is 4070 nM; on 5-HT2A receptors, more than 10 µM. The “5-HT2A /5-HT2C affinity ratio” value with 5-HT2C receptors [2] was more than 2.3.

For `Cl.c1ccc(CN2C[C@@H]3COc4ccccc4[C@@H]3C2)cc1` (relative stereo) [Example 12, cis-2-Benzyl-1,3,3a,4,9b-pentahydro-(1)-benzopyrano[3,4-c]pyrrole hydrochloride], the figures for the Ki at 5-HT2C receptors [1] and at 5-HT2A receptors were 832 nM and 3.55 µM, respectively. In addition, the “5-HT2A /5-HT2C affinity ratio” value in the experiment on 5-HT2C receptors [2] worked out at 4.3.

For the compound `Cl.c1ccc2c(c1)OC[C@H]1CNC[C@@H]21` (relative stereo) [Example 13, cis-1,3,3a,4,9b-Pentahydro-(1)-benzopyrano[3,4-c]pyrrole hydrochloride], the Ki on 5-HT2C receptors [1] is 3090 nM; at 5-HT2A receptors, more than 10 µM. In addition, the “5-HT2A /5-HT2C affinity ratio” value with 5-HT2C receptors [2] is reported as more than 3.33.

In the case of `Oc1cccc2c1[C@H]1CN(Cc3ccccc3)C[C@H]1CO2` (relative stereo) [Example 14, cis-2-Benzyl-9-hydroxy-1,3,3a,4,9b-pentahydro-(1)-benzopyrano[3,4-c]pyrrolehydrochloride], the figures for the Ki at 5-HT2C receptors [1] and at 5-HT2A receptors were 219 nM and 1.1 µM, respectively. In the experiment on 5-HT2C receptors [2], the “5-HT2A /5-HT2C affinity ratio” value came out at 5.00.

As to `COc1cccc2c1[C@H]1CN(Cc3ccccc3)C[C@H]1CO2` (relative stereo) [Example 15, cis-2-Benzyl-9-methoxy-1,3,3a,4,9b-pentahydro-(1)-benzopyrano[3,4-c]pyrrolehydrochloride], the figures for the inhibition constant (Ki) at 5-HT2C receptors [1] and on 5-HT2A receptors were 36.3 nM and 0.389 µM, respectively. Moreover, in the experiment on 5-HT2C receptors [2], the “5-HT2A /5-HT2C affinity ratio” value is on record as 10.7.

For the compound `COc1cccc2c1[C@@H]1CNC[C@@H]1CO2.Cl` (relative stereo) [Example 16, cis-9-Methoxy-1,3,3a,4,9b-pentahydro-(1)-benzopyrano[3,4-c]pyrrole hydrochloride], the figures for the Ki on 5-HT2C receptors [1] and at 5-HT2A receptors were 263 nM and 3.31 µM, respectively. The “5-HT2A /5-HT2C affinity ratio” value in the experiment on 5-HT2C receptors [2] was determined as 12.6.

Take `Cl.Clc1ccc2c(c1)OC[C@H]1CN(Cc3ccccc3)C[C@H]21` (relative stereo) [Example 18, trans-2-Benzyl-7-chloro-1,3,3a,4,9b-pentahydro-(1)-benzopyrano[3,4-c]pyrrole hydrochloride]: the results for the inhibition constant Ki on 5-HT2C receptors [1] and on 5-HT2A receptors were 871 nM and 1.87 µM, respectively. In addition, in the experiment with 5-HT2C receptors [2], the “5-HT2A /5-HT2C affinity ratio” value is 2.1.

For `c1ccc2c(c1)OC[C@@H]1CN(CCOc3cccc4c3SCCC4)C[C@H]21` (relative stereo) [Example 19, cis-2-[2-(Thiochroman-8-yloxy)ethyl]-1,3,3a,9b-pentahydro-(1)-benzopyrano[3,4-c]pyrrole hydrochloride], the Ki at 5-HT2C receptors [1] was determined as 22 nM; at 5-HT2A receptors it was 0.155 µM. At 5-HT2C receptors [1] (relative to SB 200,646), the “times more powerful antagonists than the reference compound SB 200,646” value was 9 times. Further, the “5-HT2A /5-HT2C affinity ratio” value in the experiment on 5-HT2C receptors [2] was found to be 7.0.

On to `COc1ccc2c(c1)OC[C@@H]1CN(Cc3ccccc3)C[C@H]21` (relative stereo) [Example 21, cis-2-Benzyl-7-methoxy-1,3,3a,4,9b-pentahydro-(1)-benzopyrano[3,4-c]pyrrolehydrochloride], for which the inhibition constant Ki came out at 871 nM at 5-HT2C receptors [1] and 0.617 µM at 5-HT2A receptors. Besides, the “5-HT2A /5-HT2C affinity ratio” value in the experiment on 5-HT2C receptors [2] is reported as 0.7.

Regarding `COc1ccc2c(c1)OC[C@H]1CN(Cc3ccccc3)C[C@H]21.Cl` (relative stereo) [Example 22, trans-2-Benzyl-7-methoxy-1,3,3a,4,9b-pentahydro-(1)-benzopyrano[3,4-c]pyrrole hydrochloride], the Ki at 5-HT2C receptors [1] worked out at 478 nM; at 5-HT2A receptors it was 0.17 µM. The “5-HT2A /5-HT2C affinity ratio” value in the experiment on 5-HT2C receptors [2] was determined as 3.6.

Take `Clc1ccc2c(c1)[C@H]1CN(Cc3ccccc3)C[C@H]1CO2` (relative stereo) [Example 24, cis-2-Benzyl-8-chloro-1,3,3a,4,9b-pentahydro-(1)-benzopyrano[3,4-c]pyrrolehydrochloride]: the inhibition constant Ki was 38 nM at 5-HT2C receptors [1] and 0.107 µM on 5-HT2A receptors. Also, the “5-HT2A /5-HT2C affinity ratio” value with 5-HT2C receptors [2] turned out to be 2.8.

With `Cl.c1ccc2c3c(ccc2c1)OC[C@@H]1CNC[C@@H]31` (relative stereo) [Example 33, trans-1,2,3,3a,4,11c-Hexahydro-5-oxa-2-aza-cyclopenta[c]phenanthrene hydrochloride], the Ki on 5-HT2C receptors [1] was 51 nM; on 5-HT2A receptors it was 0.107 µM. In addition, the “5-HT2A /5-HT2C affinity ratio” value in the experiment on 5-HT2C receptors [2] worked out at 2.1.

Regarding `Cl.c1ccc(CN2C[C@H]3COc4c(ccc5ccccc45)[C@@H]3C2)cc1` (relative stereo) [Example 34, trans-16-Benzyl-12,13,14,15,16,17-hexahydro-11-oxa-16-aza-cyclopenta[a]phenanthrene hydrochloride], the inhibition constant Ki was found to be 776 nM on 5-HT2C receptors [1] and 1.48 µM at 5-HT2A receptors. For the same compound, the “5-HT2A /5-HT2C affinity ratio” value in the experiment on 5-HT2C receptors [2] is listed as 1.9.

As for `Cl.c1ccc(CN2C[C@@H]3COc4c(ccc5ccccc45)[C@@H]3C2)cc1` (relative stereo) [Example 35, cis-16-Benzyl-12,13,14,15,16,17-hexahydro-11-oxa-16-aza-cyclopenta[a]phenanthrene hydrochloride], the inhibitory constant (Ki) at 5-HT2C receptors [1] stood at 331 nM; on 5-HT2A receptors, 0.955 µM. Moreover, the “5-HT2A /5-HT2C affinity ratio” value in the experiment on 5-HT2C receptors [2] amounted to 2.9.
